Measurements reported in PMC4113456, “Atypical Signaling and Functional Desensitization Response of MAS Receptor to Peptide Ligands” (PLoS ONE, 2014).
Residue numbers refer to the chain shown, from its start. Marks after values point to notes of the source that are not given here.

What was measured:
Assay type in all cases: cell-based
MAS [1] = target: T1, MAS (Homo sapiens, UniProt P04201); assay: HTRF IP1 assay, induced myc-tagged WT MAS HEK293 stable cell line
T1 construct: expressed in transfected cells
T1 sequence (P04201 1-325): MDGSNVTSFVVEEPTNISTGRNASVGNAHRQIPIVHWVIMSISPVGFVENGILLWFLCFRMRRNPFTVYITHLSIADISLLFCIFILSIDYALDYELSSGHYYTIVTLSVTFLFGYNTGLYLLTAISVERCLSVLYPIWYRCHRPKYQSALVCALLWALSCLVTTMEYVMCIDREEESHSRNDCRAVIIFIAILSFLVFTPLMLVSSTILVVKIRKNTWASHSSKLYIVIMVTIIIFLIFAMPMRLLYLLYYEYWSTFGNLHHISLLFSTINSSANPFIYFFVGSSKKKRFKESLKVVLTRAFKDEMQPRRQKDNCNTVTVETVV
Procedure: IP1 levels in the cells were measured using the IP-One Tb kit (Cisbio US, Bedford, MA). For the assay, cells were seeded onto a 384-well low volume white cell culture plate at a density of 25,000 cells/well in 20 µl of induction or complete medium. In the IP1 assays the cell density of 25,000 cells/well was consistently maintained to minimize variability between independent experiments. The cells were maintained in a cell culture incubator for 26–28 h. The cells were then serum starved for 2 h by replacing the medium with 7 µl of serum free DMEM/F-12. During this step, 7 µl of serum free DMEM/F-12 was also added to the wells to which IP1 standards would be subsequently added. […] The cells were then placed in the cell culture incubator for 4 h. Later, 3 µl each of d2-labeled IP1 and anti-IP1 cryptate Tb conjugated antibody diluted in lysis buffer was added sequentially to all the wells and the plate was incubated overnight in the dark at room temperature. Time-resolved ratiometric fluorescence emission measurements at 665 nm and 620 nm were taken after excitation at 343 nm on FlexStation 3 instrument.
For the IP1 assay, a standard curve was generated using the 4-Parameter logistic equation fit of the HTRF readings of IP1 standards using the SoftMax Pro software. The IP1 concentrations in the experiments were extrapolated based on the standard curve parameters. […] For all the assays, the EC50 and IC50 values were estimated by fitting the data to a three parameter dose response using GraphPad Prism software (GraphPad, La Jolla, CA).

MAS F112A mutant = target: T2, MAS F112A mutant (Homo sapiens, UniProt P04201, F112A); assay: IP1 assay, F112A MAS mutant stable cell line
T2 construct: expressed in transfected cells
T2 sequence (P04201 1-325 F112A): T1 sequence (P04201 1-325) with F112A
From the text: (§1) The WT MAS expression construct was synthesized with an N-terminal myc-tag (Figure 1) by GenScript (Piscataway, NJ). The myc-tagged WT MAS from this vector was initially sub-cloned into pcDNA3.1 and later sub-cloned into tetracycline/doxycycline inducible vector pcDNA 5/TO (Life Technologies, Grand Island, NY). Four different ligand binding MAS mutants (F112A, I191A, M244A and T270A) were created using site-directed mutagenesis of WT myc-tagged MAS in pcDNA3.1 or pcDNA 5/TO vector background (Agilent Technologies, Santa Clara, CA). WT MAS receptor without an epitope tag was constructed by replacing the 5′ portion of the myc-tagged WT MAS in pcDNA 5/TO by untagged MAS sequence from a plasmid construct provided as a gift from Arena Pharmaceuticals, Inc. (San Diego, CA). The sequences of all WT and mutant MAS genes in plasmid constructs were verified by capillary DNA sequencing at the Genomics Core at Lerner Research Institute (Cleveland, OH).
(§2) IP1 levels in the cells were measured using the IP-One Tb kit (Cisbio US, Bedford, MA). For the assay, cells were seeded onto a 384-well low volume white cell culture plate at a density of 25,000 cells/well in 20 µl of induction or complete medium. In the IP1 assays the cell density of 25,000 cells/well was consistently maintained to minimize variability between independent experiments. The cells were maintained in a cell culture incubator for 26–28 h. […] Time-resolved ratiometric fluorescence emission measurements at 665 nm and 620 nm were taken after excitation at 343 nm on FlexStation 3 instrument. […]
(§3) For re-stimulation assays, the data is expressed as the percentage of maximum agonist stimulation to allow for ready comparison between individual experiments. For the IP1 assay, a standard curve was generated using the 4-Parameter logistic equation fit of the HTRF readings of IP1 standards using the SoftMax Pro software. […] In the luciferase assay, the luminescence measurements (RLU) are presented as a ratio of firefly to renilla luciferase activity. […]

MAS [2] = target: T1, MAS; assay: FLIPR calcium assay, induced myc-tagged WT MAS HEK293 stable cell line
Procedure: The assay was performed using FLIPR Calcium 5 assay kit (Molecular Devices, Sunnyvale, CA). For calcium measurements, cells at a density of 125,000 cells/well in 100 µl medium were seeded onto a 96-well clear bottom black cell culture plate that was pre-coated with poly-L-lysine. In the calcium assays the cell density of 125,000 cells/well was consistently maintained to minimize variability between independent experiments. The cells were seeded in induction media to induce MAS expression or in complete media for negative controls. The plate was maintained in a cell culture incubator for 26–28 h. The cells were then serum starved for 2 h by replacing the medium with 100 µl of serum free DMEM. In the case of pre-treatment with pan-inhibitor of G protein signaling, BIM-46187, the cells were initially serum starved for 1 h by replacing the medium with 50 µl of serum free DMEM. After 1 h, 50 µl of BIM-46187 was added to the cells to a final concentration of 25 µM and treated for another 1 h. Following serum starvation, 100 µl of calcium sensitive dye along with 2x (2.5 mM final concentration) probenecid (Life Technologies, Grand Island, NY) was added to the cells. During this step, AR-inverse agonist or BIM-46187 was also added at desired concentrations to the calcium dye preparation in case of experiments where cells were pre-treated with these inhibitors. The cells were maintained for one hour in the cell culture incubator. Following this, the 96-well plate containing cells loaded with calcium dye and a U-bottom 96-well plate containing ligands at 5x the desired final concentration in D-PBS (1.47 mM KH2PO4, 138 mM NaCl, 2.67 mM KCl, 8.1 mM Na2HPO4, pH 7.3) were allowed to equilibrate for 15 min on a FlexStation 3 instrument (Molecular Devices, Sunnyvale, CA) at 37°C. The plates were further equilibrated on the instrument for 5 min with the lids removed from the plates. The instrument was programmed in FLEX mode to add ligands (50 µl at 5x concentration) to the cells and to monitor the fluorescence before and after adding the ligands. In re-stimulation and antagonism assays the instrument is programmed to add 35 µl of first ligand followed by addition of the second ligand (35 µl) after 10 min. […] Therefore, when using 5x ligand stock the maximum AR-agonist concentration that could be tested was 10 µM.
In the calcium assays, the maximum response and minimum response values in relative fluorescence units (RFU) were extracted by subtracting the corresponding baseline value wherein baseline is defined as the average fluorescence of all time points before addition of ligand.
The kinetic parameter t1/2 (time taken to reach half of the maximum response) was determined using SoftMax Pro software supplied with the FlexStation 3 instrument (Molecular Devices, Sunnyvale, CA).
For re-stimulation assays, the data is expressed as the percentage of maximum agonist stimulation to allow for ready comparison between individual experiments. […] For all the assays, the EC50 and IC50 values were estimated by fitting the data to a three parameter dose response using GraphPad Prism software (GraphPad, La Jolla, CA).

MAS I191A mutant = target: T3, MAS I191A mutant (Homo sapiens, UniProt P04201, I191A); assay: IP1 assay, I191A MAS mutant stable cell line
T3 construct: expressed in transfected cells
T3 sequence (P04201 1-325 I191A): T1 sequence (P04201 1-325) with I191A
From the text: as §1
IP1 levels in the cells were measured using the IP-One Tb kit (Cisbio US, Bedford, MA). For the assay, cells were seeded onto a 384-well low volume white cell culture plate at a density of 25,000 cells/well in 20 µl of induction or complete medium. In the IP1 assays the cell density of 25,000 cells/well was consistently maintained to minimize variability between independent experiments. The cells were maintained in a cell culture incubator for 26–28 h. The cells were then serum starved for 2 h by replacing the medium with 7 µl of serum free DMEM/F-12. During this step, 7 µl of serum free DMEM/F-12 was also added to the wells to which IP1 standards would be subsequently added. Following serum starvation, 7 µl of ligands and serially diluted IP1-standards prepared at 2x concentration in stimulation buffer (10 mM Hepes, 1 mM CaCl2, 0.5 mM MgCl2, 4.2 mM KCl, 146 mM NaCl, 5.5 mM glucose, 50 mM LiCl, pH 7.4) were added to the appropriate wells. The cells were then placed in the cell culture incubator for 4 h. Later, 3 µl each of d2-labeled IP1 and anti-IP1 cryptate Tb conjugated antibody diluted in lysis buffer was added sequentially to all the wells and the plate was incubated overnight in the dark at room temperature. Time-resolved ratiometric fluorescence emission measurements at 665 nm and 620 nm were taken after excitation at 343 nm on FlexStation 3 instrument. […]
as §3

MAS T270A mutant = target: T4, MAS T270A mutant (Homo sapiens, UniProt P04201, T270A); assay: IP1 assay, T270A MAS mutant stable cell line
T4 construct: expressed in transfected cells
T4 sequence (P04201 1-325 T270A): T1 sequence (P04201 1-325) with T270A
From the text: as §1, §2, §3

[3] = WT MAS, induced cells, inhibition of constitutive activity

Compound	EC50 (MAS [1]; WT MAS, induced cells) [nM]	Fold over WT, EC50 IP1 assay (MAS [1]; WT construct)	EC50, IP1 assay (MAS F112A mutant)	t1/2 (time taken to reach half of the maximal calcium response), Calcium assay (MAS [2]; WT MAS) [s]	EC50 (MAS [2]; WT MAS, induced cells) [nM]	Fold over WT, EC50 Calcium assay (MAS [2]; WT construct)	EC50 (MAS I191A mutant) [nM]	Fold over WT, EC50 IP1 assay (MAS I191A mutant)	EC50, IP1 assay (MAS T270A mutant)	IC50 (MAS [1]; [3]) [nM]	Fold over WT, IC50 IP1 assay (MAS [1]; WT construct)	Fold over WT, IC50 IP1 assay (MAS F112A mutant)	IC50 (MAS F112A mutant) [nM]	IC50 (MAS [2]; [3]) [nM]	Fold over WT, IC50 IP1 assay (MAS I191A mutant)	IC50 (MAS I191A mutant) [nM]	Fold over WT, IC50 IP1 assay (MAS T270A mutant)	IC50 (MAS T270A mutant) [nM]
COc1cc([N+](=O)[O-])ccc1S(=O)(=O)N1CC(CN2CCN(c3ccccn3)CC2)C(c2cccc(F)c2)C1 (stereo not drawn) [AR-agonist]	1300 ± 300	1	cbd	31.2 ± 2.1	1500 ± 300	1	2400 ± 1100	1.8	cbd	–	–	–	–	–	–	–	–	–
C=CCCN1CCC2(CC1)CN(C(=O)c1c(F)cccc1F)c1ccc(Cl)cc12 [AR-inverse]	–	–	–	–	–	–	–	–	–	700 ± 100	1	3**	2100 ± 400	900 ± 600	1.3	900 ± 100	2.5**	1700 ± 30
